Reference: patent publication US9682060B2, “Small molecules that induce intrinsic pathway apoptosis” (The Board of Trustees of the University of Illinois, priority 2015, dated 2017)

Assays:
HFF-1 = assay: Raptinal toxicity in various cell lines, 24 hour IC50; type: cell-based; conditions: HFF-1 (Human Foreskin Fibroblast); 24 hour incubation; mean ± SD
143B = assay: Raptinal toxicity, 24 hour IC50 (sulforhodamine B assay for adherent cells); type: cell-based; conditions: 143B (Human Osteosarcoma); 24 hour incubation; mean ± SD
Method: (§1) Sulforhodamine B Assay for Adherent Cells.
(§2) Serial dilutions of compound in 100% DMSO were added in triplicate (2 μL to each well) to empty wells of a 96-well plate. Adherent cells (3T3, Hs888Lu, MCF-7, HeLa, WT-MEF, 4T1, B16-F10, SK-MEL-5, MIA PaCa2, BT-549, MDA-MB-436, 143B, HOS, H460, H1993) cells were added to each well (5×10^3 cells in 198 μL of RPMI 1640, DMEM or EMEM media). The plates were incubated for 24 hours. The media was removed from the plate and ice-cold trichloroacetic acid (100 μL of 10% w/v trichloroacetic acid) was added to the plates which were then incubated at 4° C. overnight to fix the cells. The trichloroacetic acid was removed and the wells washed with 200 μL of de-ionized water 5 times. Sulforhodamine B (200 μL of 0.04% sodium salt dissolved in 1% acetic acid) was added to each well and the plates incubated at room temperature for 30 min. Excess sulforhodamine B was removed by washing the plates 5 times with 1% acetic acid. The bound dye was released by the addition of unbuffered Tris-base (200 μL of 10 mM solution) and after a 30 min incubation at room temperature the absorbance at 510 nm was measured (Molecular Devices SpectraMax Plus 384 plate reader). The mean IC50 values and standard deviations were determined from three independent experiments.

3T3 = assay: as above; type: cell-based; conditions: NIH3T3; 3T3 (Mouse Embryonic Fibroblasts); 24 hour incubation; mean ± SD
Method: as §1, §2

4T1 = assay: as above; type: cell-based; conditions: 4T1 (Mouse Breast Cancer); 24 hour incubation; mean ± SD
Method: as §1, §2

B16-F10 = assay: as above; type: cell-based; conditions: B16-F10 (Mouse Melanoma); 24 hour incubation; mean ± SD
Method: as §1, §2

BT-549 = assay: as above; type: cell-based; conditions: BT-549 (Human Breast Cancer); 24 hour incubation; mean ± SD
Method: as §1, §2

H1993 = assay: as above; type: cell-based; conditions: NCI-H1993; H1993 (Human Lung Cancer); 24 hour incubation; mean ± SD
Method: as §1, §2

H460 = assay: as above; type: cell-based; conditions: NCI-H460; H460 (Human Lung Cancer); 24 hour incubation; mean ± SD
Method: as §1, §2

HOS = assay: as above; type: cell-based; conditions: HOS (Human Osteosarcoma); 24 hour incubation; mean ± SD
Method: as §1, §2

HeLa = assay: as above; type: cell-based; conditions: HeLa (Human Cervical Cancer); 24 hour incubation; mean ± SD
Method: as §1, §2

Hs888Lu = assay: as above; type: cell-based; conditions: Hs888Lu (Human lung fibroblast); 24 hour incubation; mean ± SD
Method: as §1, §2

MCF-7 = assay: as above; type: cell-based; conditions: MCF7; MCF-7 (Human Breast Cancer); 24 hour incubation; mean ± SD
Method: as §1, §2

MDA-MB-436 = assay: as above; type: cell-based; conditions: MDA-MB-436 (Human Breast Cancer); 24 hour incubation; mean ± SD
Method: as §1, §2

MIA PaCa-2 = assay: as above; type: cell-based; conditions: MIA PaCa-2 (Human Pancreatic Cancer); 24 hour incubation; mean ± SD
Method: as §1, §2

SK-MEL-5 = assay: as above; type: cell-based; conditions: SK-MEL-5 (Human Melanoma); 24 hour incubation; mean ± SD
Method: as §1, §2

WT-MEF = assay: as above; type: cell-based; conditions: Fibroblast; WT-MEF (Mouse Embryonic Fibroblasts); 24 hour incubation; mean ± SD
Method: as §1, §2

zebrafish embryos = assay: Apoptosis in zebrafish (secretory annexin V-YFP); type: in vivo; conditions: transgenic embryos 24 hours post fertilization; 10 μM for 1.5 hours
Method: Zebrafish experiments were performed as described (van Ham et al., 2010). TuAB zebrafish embryos were used for all experiments and were incubated at 28° C. in HEPES-buffered E3 zebrafish medium (pH 7.2) in the dark. Chemical treatments (10 μM Raptinal or vehicle, 1% v/v final DMSO) were performed in multi-well plates in buffered E3 medium. Images were taken using an AxioCam MRc camera and AxioVision 4.8 software (Zeiss). To quantify apoptosis, the number of secA5-YFP+ apoptotic cells was counted manually in embryos using a fluorescence dissection stereomicroscope (Discovery V8; Zeiss, Germany).

U-937 cells = assay: Cell morphology by light, scanning electron and transmission electron microscopy; type: cell-based, Human; conditions: 10 μM
Method: Cell Morphology by Light Microscopy.
Phase contrast images of U-937 cells treated with 10 μM Raptinal were taken with an Olympus DP-21 microscope digital camera. The cells were kept warm between images by returning the plate to the 37° C. incubator.
Scanning Electron Microscopy.
U-937 cells (4×10^6 cells in 8 mL 0.45 micron-filtered cell culture media) were treated with 1% DMSO) or 10 μM Raptinal in 10 cm culture dishes for 60 minutes. The cells were centrifuged (250×g, 5 min) and the media aspirated. Ice-cold Karnovsky's fixative (1 mL of 0.45 micron filtered) was added to the cell pellet which was resuspended by gently agitation. The cells were fixed overnight at 4° C. and submitted for scanning electron microscopy (SEM) sample processing. The cells were stained with OsO4, placed on filter paper and dehydrated. After mounting, the cells were coated with Pd/Au and scanning electron microscopy was performed.
Transmission Electron Microscopy.
U-937 cells (4 mL of 5×10^5 cells/ml) were treated with DMSO or 10 μM of Raptinal for 5, 30, and 60 minutes. The cells were centrifuged 400×g for 5 min and the media aspirated. The cells were fixed by the addition of Karnovsky's fixing solution (0.5 mL) and placed in a 4° C. fridge overnight. The next day, the cells were microwave fixed, stained with 2% OsO4, washed with 3% KCN and enbloc stained with uranyl acetate. The samples were dehydrated with acetonitrile and ethanol, suspended in pure epoxy, and embedded overnight at 85° C. The embedded samples were cut into thick and then thin sections and these were mounted and viewed.

O=CC1(C2(C=O)c3ccccc3-c3ccccc32)c2ccccc2-c2ccccc21 [Raptinal, [9,9′]bifluorenyl-9,9′-dicarbaldehyde]
IC50 (HFF-1): 3.3 ± 0.2 µM | IC50 (143B): 1.2 ± 0.5 µM | IC50 (3T3): 1 ± 0.2 µM | IC50 (4T1): 1 ± 0.2 µM | IC50 (B16-F10): 1.6 ± 0.2 µM | IC50 (BT-549): 1.3 ± 0.4 µM | IC50 (H1993): 1.2 ± 0.1 µM | IC50 (H460): 1.1 ± 0.1 µM | IC50 (HOS): 1 ± 0.1 µM | IC50 (HeLa): 0.6 ± 0.4 µM | IC50 (Hs888Lu): 1.7 ± 0.1 µM | IC50 (MCF-7): 3.4 ± 0.1 µM | IC50 (MDA-MB-436): 1.1 ± 0.1 µM | IC50 (MIA PaCa-2): 1.9 ± 0.8 µM | IC50 (SK-MEL-5): 0.7 ± 0.1 µM | IC50 (WT-MEF): 2.4 ± 0.7 µM | apoptotic cells (zebrafish embryos): 80 cells per fish | mitochondrial morphology (transmission electron microscopy) (U-937 cells; after 5 minutes): substantial mitochondrial swelling | blebbing (U-937 cells; at 30 min): modest | blebbing (U-937 cells; at 60 min): extensive
